Among the test systems are CCRF-CEM leukemia; HCT-116 colon; KM12 colon; MALME-3M melanoma; OVCAR-4 ovarian; RPMI-8226 leukemia; SF-268 CNS; SF-295 CNS; U251 CNS; HCC-2998 colon.
What all share (experiment): NCI anticancer screen, dose series, 48 h

Structures are written as SMILES.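 Following 48 hours of exposure in 96-well plates, responses at five concentrations were used to interpolate endpoints linearly. Here, GI50 denotes the concentration required for 50% inhibition of growth. At the TGI there is no net growth.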 Some results are limits rather than exact numbers.

The results in this text go back to PubChem BioAssay (NCI).

As to `COc1cc(Cc2ccc3c(c2C#N)N(C)c2ccccc2S3)cc(OC)c1OC`, the TGI with CCRF-CEM leukemia, in the experiment with HCT-116 colon, in the experiment with KM12 colon, with MALME-3M melanoma, in the experiment on OVCAR-4 ovarian and with RPMI-8226 leukemia was > 100 µM each time. Further, the TGI with SF-268 CNS, in the experiment on SF-295 CNS and in the experiment with U251 CNS was > 100 µM each time.

Regarding `O=c1oc2c(ccc3c(O)cccc32)c2c1CCCC2`, the TGI with CCRF-CEM leukemia, with HCC-2998 colon, in the experiment on HCT-116 colon, in the experiment with KM12 colon, in the experiment with MALME-3M melanoma and with OVCAR-4 ovarian was > 100 µM in each case. For the same molecule, the TGI in the experiment with RPMI-8226 leukemia was > 100 µM; with SF-268 CNS, 40.8 µM; in the experiment on SF-295 CNS, 58 µM; in the experiment on U251 CNS, 55.9 µM.

On to `COc1cc(C2S/C(=C/c3ccccc3)C(=O)N2c2ccccc2Cl)cc(OC)c1OC` (centres undefined), for which the TGI is > 100 µM in the experiment with HCC-2998 colon; 62.6 µM in the experiment on HCT-116 colon; > 100 µM in the experiment on KM12 colon; 82.1 µM with MALME-3M melanoma; > 100 µM with OVCAR-4 ovarian; > 100 µM in the experiment on SF-268 CNS. Besides, the TGI is > 100 µM in the experiment on SF-295 CNS and 55.9 µM with U251 CNS.

Take `COc1cc2nc(N3CCC[C@@H](NC4=CC(=O)c5ccccc5C4=O)C3)nc(N)c2cc1OC`: the GI50 in the experiment with CCRF-CEM leukemia is 1.96 µM; in the experiment with HCC-2998 colon, 1.85 µM; in the experiment on KM12 colon it was 1.81 µM; in the experiment on OVCAR-4 ovarian, 1.64 µM; in the experiment on RPMI-8226 leukemia, 2.33 µM; in the experiment on SF-268 CNS, 1.92 µM. In addition, in the experiment with U251 CNS, the GI50 is 1.86 µM. The TGI with CCRF-CEM leukemia came out at 4.56 µM; in the experiment on HCC-2998 colon it was 3.3 µM; in the experiment with KM12 colon it was 3.33 µM; with OVCAR-4 ovarian it was 3.35 µM; with RPMI-8226 leukemia, 5.58 µM; in the experiment with SF-268 CNS, 3.81 µM. The molecule also registered a TGI in the experiment on U251 CNS of 3.46 µM.

For the molecule `CCOC(=O)/C(=N/Nc1ccc(Cl)cc1)N1C(=S)C=C(C)NN(C)C1=S`, the TGI in the experiment on CCRF-CEM leukemia, in the experiment with HCC-2998 colon, with HCT-116 colon, with KM12 colon, in the experiment on OVCAR-4 ovarian and with RPMI-8226 leukemia was > 100 µM in each case. In addition, the TGI in the experiment with SF-268 CNS came to 85 µM; with SF-295 CNS, 42.3 µM; in the experiment with U251 CNS it was 39.5 µM.

For the molecule `Cc1nc(N(CCO)CCO)c2sc(=S)n(-c3ccccc3)c2n1`, the TGI in the experiment with CCRF-CEM leukemia, in the experiment with HCC-2998 colon, in the experiment with HCT-116 colon, in the experiment on KM12 colon, with MALME-3M melanoma and in the experiment on RPMI-8226 leukemia was > 100 µM throughout. Further, the TGI in the experiment on SF-268 CNS, in the experiment with SF-295 CNS and in the experiment on U251 CNS was > 100 µM in each case.

`Cc1ccc(S(=O)(=O)Nc2cc(Sc3ccccc3)c(O)c3ccccc23)cc1`: the GI50 was 2.4 µM with CCRF-CEM leukemia; 18.4 µM in the experiment with HCC-2998 colon; 3.13 µM in the experiment on HCT-116 colon; 6.01 µM in the experiment on KM12 colon; 7.17 µM in the experiment on MALME-3M melanoma; 1.59 µM with OVCAR-4 ovarian. Besides, the GI50 is 3.4 µM in the experiment with RPMI-8226 leukemia, 2.57 µM in the experiment with SF-268 CNS, 12.9 µM in the experiment with SF-295 CNS and 1.94 µM in the experiment with U251 CNS. Moreover, the TGI in the experiment on CCRF-CEM leukemia came out at 16.6 µM; with HCC-2998 colon it was 35.9 µM; with HCT-116 colon, 11.5 µM; in the experiment with KM12 colon it was 18.9 µM; with MALME-3M melanoma, 19.6 µM; with OVCAR-4 ovarian, 2.95 µM. In addition, the TGI with RPMI-8226 leukemia was 22.8 µM; with SF-268 CNS, 8.07 µM; with SF-295 CNS it was 26.8 µM; with U251 CNS it was 3.84 µM.

As for `C/C(=N\NC(=S)Nc1ccc(Cl)cc1)c1nc2ncccc2[nH]1`, the TGI in the experiment with HCC-2998 colon was 21.1 µM; in the experiment on HCT-116 colon, 13 µM; in the experiment with KM12 colon it was 16.4 µM; in the experiment on MALME-3M melanoma, 15.7 µM; in the experiment with OVCAR-4 ovarian, 41.4 µM; in the experiment with RPMI-8226 leukemia, > 100 µM. Also, the TGI was > 100 µM in the experiment on SF-268 CNS, 13.5 µM in the experiment with SF-295 CNS and 14.5 µM with U251 CNS.

On to `BrC1=CN2C[n+]3cc(Br)c4ccccc4c3N=C2c2ccccc21`, for which the TGI in the experiment with CCRF-CEM leukemia came to 34.4 µM; in the experiment with KM12 colon, 15.9 µM; in the experiment with MALME-3M melanoma, 7.14 µM; in the experiment with OVCAR-4 ovarian it was 20 µM; in the experiment with RPMI-8226 leukemia, 30.5 µM; with SF-268 CNS, 22.1 µM. Moreover, the TGI in the experiment with SF-295 CNS is 21.5 µM; with U251 CNS, 21.9 µM.

As to `COC(=O)C1=C(O)C(C(=O)OC)[C@@]2(O)[C@@H](C(=O)OC)CC[C@@H]1[C@@H]2C(=O)OC` (some centres undefined), the TGI with CCRF-CEM leukemia was > 100 µM; in the experiment on HCC-2998 colon, 32.2 µM; with HCT-116 colon, > 100 µM; with KM12 colon, 66 µM; in the experiment with MALME-3M melanoma, 74.3 µM; in the experiment with RPMI-8226 leukemia it was 97.3 µM. Besides, the TGI in the experiment on SF-268 CNS worked out at 75.5 µM; with U251 CNS, 64.6 µM.

With `CN(CCO)/N=N/c1nc[nH]c1C(N)=O`, the TGI in the experiment with CCRF-CEM leukemia, in the experiment on HCC-2998 colon, in the experiment with HCT-116 colon, with KM12 colon, in the experiment on MALME-3M melanoma and in the experiment with OVCAR-4 ovarian was > 100 µM each time. For the same molecule, the TGI with RPMI-8226 leukemia, in the experiment with SF-268 CNS, with SF-295 CNS and in the experiment on U251 CNS was > 100 µM throughout.

As to `O=C(O)CN=c1c2ccccc2n(O)c2ccccc12`, the TGI in the experiment on CCRF-CEM leukemia is 53.6 µM; with HCC-2998 colon, > 100 µM; in the experiment with HCT-116 colon it was > 100 µM; with KM12 colon, > 100 µM; in the experiment on MALME-3M melanoma, > 100 µM; in the experiment on OVCAR-4 ovarian, > 100 µM. The TGI in the experiment on RPMI-8226 leukemia, in the experiment with SF-268 CNS, in the experiment with SF-295 CNS and in the experiment with U251 CNS was > 100 µM in each case.

As for `CCOC(=O)C(=O)Nc1cccc(C)c1C`, the TGI with CCRF-CEM leukemia, in the experiment with HCC-2998 colon, with HCT-116 colon, with KM12 colon, in the experiment on MALME-3M melanoma and with OVCAR-4 ovarian was > 100 µM throughout. Besides, the TGI in the experiment with RPMI-8226 leukemia, in the experiment with SF-268 CNS, with SF-295 CNS and with U251 CNS was > 100 µM in each case.

For `C/C([O-])=C(/c1nc(-c2ccc([N+](=O)[O-])o2)no1)[n+]1cc(C)ccc1C`, the TGI with CCRF-CEM leukemia is > 100 µM; with HCC-2998 colon, 25.8 µM; in the experiment with HCT-116 colon, 18.5 µM; in the experiment with KM12 colon, 25.4 µM; with MALME-3M melanoma, 28.2 µM; in the experiment on OVCAR-4 ovarian, 63.9 µM. Further, the TGI with RPMI-8226 leukemia turned out to be 55.2 µM; in the experiment with SF-268 CNS, 62.3 µM; in the experiment on SF-295 CNS it was 24.1 µM; with U251 CNS, 21.7 µM.
